Experimental data: US12344610B2, “APOL1 inhibitors and methods of use” (Maze Therapeutics, Inc., priority 2022, dated 2025)

What was measured:
Assay type in all cases: cell-based
[1] = test system: Trypanosoma brucei Lister 427 VSG221 with APOL1 G1 recombinant protein; assay: APOL1 G1 trypanosome cell rescue assay (Example B5); conditions: Trypanosoma brucei, 20 h, read-out: APOL1 G1 Trypanosome Rescue EC50, Trypanosoma brucei Lister 427 VSG221 with APOL1 G1 recombinant protein, 20 hours, CellTiter-Glo; geometric mean of at least 2 assay runs; † = single assay run
In short: (§1)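 Viability read by CellTiter-Glo luminescence after 20 h co-incubation (37° C, 5% CO2) of 250 trypanosomes/well in modified HMI-9 with test compound (duplicate 11-point, 2-fold dilutions, 0.4% DMSO) and APOL1 protein, […]. Protein: mature residues 28-398, E. coli inclusion-body refolded, tag cleaved, in DDM.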

[2] = test system: HEK293 cells overexpressing APOL1 G2; assay: APOL1 G2 HEK293 cell rescue assay (reversal of cell death caused by overexpression of APOL1); conditions: Homo sapiens, HEK293, HEK293 overexpressing APOL1 G2; geometric mean of at least 2 assay runs; † = single assay run
In short: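 Each compound tested in duplicate wells on one plate per run, with values usually the geometric mean across at least two runs on different days, occasionally from one run only. Read-out: concentration giving half-maximal rescue of APOL1 G2 overexpression-induced death of HEK293 cells.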

[3] = test system: Trypanosoma brucei Lister 427 VSG221 with APOL1 G2 recombinant protein; assay: APOL1 G2 trypanosome cell rescue assay (Example B5); conditions: Trypanosoma brucei, 20 h, read-out: APOL1 G2 Trypanosome Rescue EC50, Trypanosoma brucei Lister 427 VSG221 with APOL1 G2 recombinant protein, 20 hours, CellTiter-Glo; geometric mean of at least 2 assay runs; † = single assay run
In short: as §1

| SMILES | EC50 [1] | EC50 [2] | EC50 [3] |
| --- | --- | --- | --- |
| C[C@]1(O)C[C@@H](n2c(=O)[nH]c3cc(OCCN4CCC5(CC4)C(=O)Nc4ccc(C#N)cc45)cc(C(F)(F)F)c32)C1 [Compound 470, 2-oxo-1′-[2-({2-oxo-1-[(cis)-3-hydroxy-3-methylcyclobutyl]-7-(trifluoromethyl)-2,3-dihydro-1H-1,3-benzodiazol-5-yl}oxy)ethyl]-1,2-dihydrospiro[indole-3,4′-piperidine]-5-carbonitrile] | 12.4 nM | 179 nM | 4.41 nM |
| [2H]C([2H])(Oc1cnc2c(c1)CCC(=O)N2[C@H]1C[C@@](C)(O)C1)C([2H])([2H])N1CCC2(CC1)C(=O)Nc1ccc(Cl)cc12 [Compound 426, 5-chloro-1′-[2-({7-oxo-8-[(cis)-3-hydroxy-3-methylcyclobutyl]-5,6,7,8-tetrahydro-1,8-naphthyridin-3-yl}oxy)(1,1,2,2-^2H4)ethyl]-1,2-dihydrospiro[indole-3,4′-piperidin]-2-one] | 88.8 nM | 37.8 nM | 36.7 nM |
| C[C@]1(O)C[C@@H](n2cc3cc(OCCN4CCC5(CC4)C(=O)Nc4ccc(Cl)cc45)cc(C(F)(F)F)c3n2)C1 [Compound 427, 5-chloro-1′-[2-({2-[(cis)-3-hydroxy-3-methylcyclobutyl]-7-(trifluoromethyl)-2H-indazol-5-yl}oxy)ethyl]-1,2-dihydrospiro[indole-3,4′-piperidin]-2-one] | 18.1 nM | 18.5 nM | 6.62 nM |
| CC(c1ncc(OCCN2CCC3(CC2)C(=O)Nc2ccc(Cl)cc23)cn1)S(C)(=O)=O (stereo not drawn) [Compound 1, 5-Chloro-1′-(2-{[2-(1-methanesulfonylethyl)pyrimidin-5-yl]oxy}ethyl)-1,2-dihydrospiro[indole-3,4′-piperidin]-2-one] | 293 nM | 120 nM | 89.6 nM |
| CNC(=O)N1CCCc2cc(OCCN3CCC4(CC3)C(=O)Nc3ccc(Cl)cc34)ccc21 [Compound 60, 6-(2-{5-chloro-2-oxo-1,2-dihydrospiro[indole-3,4′-piperidin]-1′-yl}ethoxy)-N-methyl-1,2,3,4-tetrahydroquinoline-1-carboxamide] | 228 nM | 62.7 nM | 66 nM |
| CS(=O)(=O)c1ccc(OCCN2CCC3(CC2)C(=O)Nc2ccc(Cl)cc23)cc1C#N [Compound 50, 5-(2-{5-chloro-2-oxo-1,2-dihydrospiro[indole-3,4′-piperidin]-1′-yl}ethoxy)-2-methanesulfonylbenzonitrile] | 44.9 nM | 24.9 nM | 10.2 nM |
| C[C@]1(O)C[C@@H](N2C(=O)Cc3cc(OCCN4CCC5(CC4)C(=O)Nc4ccc(C(F)F)cc45)cnc32)C1 [Compound 346, 5-(difluoromethyl)-1′-[2-({2-oxo-1-[(cis)-3-hydroxy-3-methylcyclobutyl]-1H,2H,3H-pyrrolo[2,3-b]pyridin-5-yl]oxy)ethyl]-1,2-dihydrospiro[indole-3,4′-piperidin]-2-one] | 116 nM | 34.3 nM | 37.7 nM |
| CS(C)(=O)=Nc1ccc(OCCN2CCC3(CC2)C(=O)Nc2ccc(C#N)cc23)cc1 [Compound 77, 1′-[2-(4-{[dimethyl(oxo)-λ^6-sulfanylidene]amino}phenoxy)ethyl]-2-oxo-1,2-dihydrospiro[indole-3,4′-piperidine]-5-carbonitrile] | > 4000 nM | 2250 nM | 1450 nM |
| CS(=O)(=O)c1ccc(OCCN2CCC3(CC2)C(=O)Nc2ccc(Br)cc23)cc1 [Compound 72, 5-bromo-1′-[2-(4-methanesulfonylphenoxy)ethyl]-1,2-dihydrospiro[indole-3,4′-piperidin]-2-one] | 177 nM | 35.9 nM | 45.7 nM |
| C[C@]1(O)C[C@@H](n2c(=O)ccc3cc(OCCN4CCC5(CC4)C(=O)Nc4ccc(OC(F)F)cc45)cnc32)C1 [Compound 328, 5-(difluoromethoxy)-1′-[2-({7-oxo-8-[(cis)-3-hydroxy-3-methylcyclobutyl]-7,8-dihydro-1,8-naphthyridin-3-yl}oxy)ethyl]-1,2-dihydrospiro[indole-3,4′-piperidin]-2-one] | 92.1 nM | 34.1 nM | 23.9 nM |
| CC(C)[C@]1(O)C[C@@H](N2C(=O)CCc3cc(OCCN4CCC5(CC4)C(=O)Nc4ccc(Cl)cc45)cnc32)C1 [Compound 317, 5-chloro-1′-[2-({7-oxo-8-[(cis)-3-hydroxy-3-(propan-2-yl)cyclobutyl]-5,6,7,8-tetrahydro-1,8-naphthyridin-3-yl}oxy)ethyl]-1,2-dihydrospiro[indole-3,4′-piperidin]-2-one] | 33.5 nM | 23.9 nM | 11.5 nM |
| C[C@]1(O)C[C@@H](N2C(=O)CCc3cc(OCCN4CCC5(CC4)C(=O)Nc4ccc(OC(F)F)cc45)cnc32)C1 [Cmpd 325, 5-(difluoromethoxy)-1′-[2-({7-oxo-8-[(cis)-3-hydroxy-3-methylcyclobutyl]-5,6,7,8-tetrahydro-1,8-naphthyridin-3-yl}oxy)ethyl]-1,2-dihydrospiro[indole-3,4′-piperidin]-2-one] | 269 nM | 86.4 nM | 77.5 nM |
| CS(=O)(=O)c1c(F)cc(OCCN2CCC3(CC2)C(=O)Nc2ccccc23)cc1F [Compound 42, 1′-[2-(3,5-difluoro-4-methanesulfonylphenoxy)ethyl]-1,2-dihydrospiro[indole-3,4′-piperidin]-2-one] | 1880 nM | 343 nM | 406 nM |
| CC(c1ccc(OCCN2CCC3(CC2)C(=O)Nc2ccc(Cl)cc23)cc1)S(C)(=O)=O (single isomer, unassigned) [Compound 39, 5-chloro-1′-(2-{4-[(1S) or (1R)-1-methanesulfonylethyl]phenoxy}ethyl)-1,2-dihydrospiro[indole-3,4′-piperidin]-2-one] | 206 nM | 56.7 nM | 53 nM |
| CS(=O)(=O)c1ccc(OCCN2CCC3(CC2)C(=O)Nc2ccc(Cl)cc23)cc1 [Compound 69, 5-chloro-1′-[2-(4-methanesulfonylphenoxy)ethyl]-1,2-dihydrospiro[indole-3,4′-piperidin]-2-one] | 184 nM | 82.6 nM | 46.5 nM |
| CC1(O)CC(CN2C(=O)CCc3cc(OCCN4CCC5(CC4)C(=O)Nc4ccc(Cl)cc45)cnc32)C1 (stereo not drawn) [Compound 327, 5-chloro-1′-[2-({8-[(3-hydroxy-3-methylcyclobutyl)methyl]-7-oxo-5,6,7,8-tetrahydro-1,8-naphthyridin-3-yl}oxy)ethyl]-1,2-dihydrospiro[indole-3,4′-piperidin]-2-one] | 46.6 nM | 28.9 nM | 13.4 nM |
| C[C@]1(O)C[C@@H](n2nnc3cc(OCCN4CCC5(CC4)C(=O)Nc4ccc(C#N)cc45)cc(C(F)(F)F)c32)C1 [Compound 435, 2-oxo-1′-[2-({1-[(cis)-3-hydroxy-3-methylcyclobutyl]-7-(trifluoromethyl)-1H-1,2,3-benzotriazol-5-yl}oxy)ethyl]-1,2-dihydrospiro[indole-3,4′-piperidine]-5-carbonitrile] | 27.2 nM | 12.9 nM | 14.5 nM |
| CC[C@]1(O)C[C@@H](N2C(=O)CCc3cc(OCCN4CCC5(CC4)C(=O)Nc4ccc(Cl)cc45)cnc32)C1 (single isomer, unassigned) [Compound 321, 5-chloro-1′-[2-({7-oxo-8-[(cis)-3-ethyl-3-hydroxycyclobutyl]-5,6,7,8-tetrahydro-1,8-naphthyridin-3-yl}oxy)ethyl]-1,2-dihydrospiro[indole-3,4′-piperidin]-2-one] | 45.9 nM | 24.1 nM | 14.3 nM |
| CC(=O)N1CCCc2cc(OCCN3CCC4(CC3)C(=O)Nc3ccc(Cl)cc34)ccc21 [Compound 56, 1′-{2-[(1-acetyl-1,2,3,4-tetrahydroquinolin-6-yl)oxy]ethyl}-5-chloro-1,2-dihydrospiro[indole-3,4′-piperidin]-2-one] | 319 nM | 105 nM | 119 nM |
| O=C1CCc2cc(OCCN3CCC4(CC3)C(=O)Nc3ccc(Cl)cc34)cnc2N1[C@H]1C[C@@H](CO)C1 (single isomer, unassigned) [Compound 319, 5-chloro-1′-[2-({7-oxo-8-[(cis)-3-(hydroxymethyl)cyclobutyl]-5,6,7,8-tetrahydro-1,8-naphthyridin-3-yl}oxy)ethyl]-1,2-dihydrospiro[indole-3,4′-piperidin]-2-one] | 81.1 nM | 41.9 nM | 27 nM |
| C[C@]1(O)C[C@@H](n2c(=O)[nH]c3cc(OCCN4CCC5(CC4)C(=O)Nc4ccc(Cl)cc45)cc(C(F)(F)F)c32)C1 [Compound 468, 5-chloro-1′-[2-({2-oxo-1-[(cis)-3-hydroxy-3-methylcyclobutyl]-7-(trifluoromethyl)-2,3-dihydro-1H-1,3-benzodiazol-5-yl}oxy)ethyl]-1,2-dihydrospiro[indole-3,4′-piperidin]-2-one] | 5.59 nM | 6.45 nM | 2.4 nM |
